Data set [1] is described as follows: Stain inhibition: 66 nylon yarn immersed in F, D & C Red 40 / citric acid staining solution. Here is the method:
3. […] A second yarn sample, Sample 2B, was immersed in staining/stain-inhibitor solution, Solution B, also for one minute. Both samples were then dried for 24 hours.
2. […] Thus, Solution 3B was prepared by adding 100 ppm of the ECG to Solution 3A.

A further data set is described as follows: Titration with NaOH. Type of data set: physicochemical.
A further data set concerns mice. Conditions: oral, in mice; cited from earlier work.
The conditions of data set [2]: commercially-available tannic acid from natural sources; cited from earlier work.
The nature of data set [3]: Stain inhibition: 66 nylon skein (yarn) soaked in cherry KOOL-AID solution. To be noted: for AATCC Staining Scale Rating: 1 min soak, dried 24 h; for CIE L / CIE a / CIE b: Minolta Chromameter. Here is the method:
(§1) Each solution was prepared by mixing 1 gram of the KOOL-AID® powder with enough water to make 450 to 500 cm^3 of solution.
(§2) Solution 1A: prepared as set forth above, no sugar added.
(§3) Solution 1B: Solution 1A+50 parts per million (ppm) tannic acid (certified, Fisher Scientific Co.).
(§4) Solution 1C: Solution 1A+200 ppm tannic acid (same tannic acid as in Solution 1B, hereafter "TA").
(§5) After the solutions were prepared, four 1 in^2 (6.45 cm^2) samples (Carpet Samples 1A, 1B, 1C, and Control) were cut from twisted, heat-set 66 nylon carpet, mock-acid dyed, and four 1-gram samples of 66 nylon skein (Test Fabrics, Middlesex, N.J.) were obtained (Yarn Samples 1A, 1B, 1C, and Control). Carpet Samples 1A, 1B, and 1C were soaked in 50 ml. of Solutions 1A, 1B, and 1C, respectively, for 1 minute, and allowed to dry for 24 hours. The Carpet Control Sample was not exposed to any of the solutions. The same procedure was followed with Yarn Samples 1A, 1B, 1C, and Control. (The carpet and skeins had been scoured in 0.1% non-ionic detergent to remove surface grease and finish.)
(§6) All samples were rinsed thoroughly in distilled water, and allowed to dry.
(§7) The amount of staining on each sample was evaluated by comparison with the AATCC Staining Scale (AATCC Test Method, 175-1991), and by the CIE L, a, b values obtained from the Minolta Chromameter.

A short description of data set [4]: Stain inhibition: 66 nylon carpet soaked in cherry KOOL-AID solution. Conditions: for AATCC Staining Scale Rating: 1 min soak, dried 24 h; for CIE L / CIE a / CIE b: Minolta Chromameter. Here is the method:
as §1, §2, §3, §4, §5, §6, §7

The nature of data set [5]: Stain-inhibiting activity (general statements).
Setting [6] is: 50 ppm TA in cherry KOOL-AID solution.
Where [7] appears, read: 200 ppm TA in cherry KOOL-AID solution.

This is an account of results in patent publication US5681604A, “Stain-inhibiting agent for dyes with affinity for protonatable nitrogen, compositions containing same and uses thereof” (priority 1993, dated 1997).

On to `O=C(O[C@@H]1Cc2c(O)cc(O)cc2O[C@@H]1c1ccc(O)c(O)c1)c1cc(O)c(O)c(O)c1` [ECG, Epicatechin gallate], for which the AATCC in data set [1] (100 ppm ECG in Red 40 staining solution pH 2.8, 1 min) was 7. Moreover, in data set [1] (100 ppm ECG, Chromameter), the “CIE L” value worked out at 81, the CIE a is given as 4 and the CIE b turned out to be 2.
As for `O=C(OC[C@H]1O[C@@H](OC(=O)c2cc(O)c(O)c(OC(=O)c3cc(O)c(O)c(O)c3)c2)[C@H](OC(=O)c2cc(O)c(O)c(OC(=O)c3cc(O)c(O)c(O)c3)c2)[C@@H](OC(=O)c2cc(O)c(O)c(OC(=O)c3cc(O)c(O)c(O)c3)c2)[C@@H]1OC(=O)c1cc(O)c(O)c(OC(=O)c2cc(O)c(O)c(O)c2)c1)c1cc(O)c(O)c(OC(=O)c2cc(O)c(O)c(O)c2)c1` [TA, tannic acid], in the data set “Titration with NaOH”, the “inflection point pH when titrated with NaOH” value is recorded as “about 4.5”. Also, in the data set on mice, the LD50 (in general, the dose at which mortality reaches 50%) is 6000 mg/kg. The water solubility entry in data set [2] is recorded as “water soluble”. In addition, the “AATCC Staining Scale Rating” value in data set [3] (setting [6]) amounted to 7; in data set [3] (setting [7]) it was 9; in data set [4] (setting [6]) it was 6; in data set [4] (setting [7]), 10. Also, the “CIE L” value was found to be 81 in data set [3] (50 ppm TA), 83 in data set [3] (200 ppm TA), 78 in data set [4] (50 ppm TA) and 83 in data set [4] (200 ppm TA). The CIE a in data set [3] (50 ppm TA) is listed as 12; in data set [3] (200 ppm TA), 8; in data set [4] (50 ppm TA), 9; in data set [4] (200 ppm TA), 0.8. In addition, the CIE b is reported as 4 in data set [3] (50 ppm TA), 4 in data set [3] (200 ppm TA), 3 in data set [4] (50 ppm TA) and 2 in data set [4] (200 ppm TA).
For the compound `Oc1cccc(O)c1O` [pyrogallol], the stain-inhibiting activity result in data set [5] is listed as “do not appear to exhibit stain-inhibiting activity”.
With `Oc1cccc(O)c1` [resorcinol], the stain-inhibiting activity result in data set [5] was “do not appear to exhibit stain-inhibiting activity”.
